According to US20260116910A1, “POLYCYCLIC COMPOUNDS AND METHODS THEREOF” (HEPAITECH (BEIJING) BIOPHARMA TECHNOLOGY CO., LTD., priority 2021, published 2026):
Where “and” joins values, the source holds several entries; their conditions need not be identical. Equal values may be shown once. Read-outs that look alike come from different tables or passages of the source.

What was measured:
MRGPRX4 = MRGPRX4 (Homo sapiens, UniProt Q96LA9); assay: MRGPRX4 activation, Fluo-8 Ca2+ FLIPR assay in HEK293T cells stably expressing MRGPRX4; format: cell-based; set-up: key to MRGPRX4 activation, Average / MRGPRX4 activation, Ave.: fluorescence change dF/F0
MRGPRX4, sequence (Q96LA9 whole entry): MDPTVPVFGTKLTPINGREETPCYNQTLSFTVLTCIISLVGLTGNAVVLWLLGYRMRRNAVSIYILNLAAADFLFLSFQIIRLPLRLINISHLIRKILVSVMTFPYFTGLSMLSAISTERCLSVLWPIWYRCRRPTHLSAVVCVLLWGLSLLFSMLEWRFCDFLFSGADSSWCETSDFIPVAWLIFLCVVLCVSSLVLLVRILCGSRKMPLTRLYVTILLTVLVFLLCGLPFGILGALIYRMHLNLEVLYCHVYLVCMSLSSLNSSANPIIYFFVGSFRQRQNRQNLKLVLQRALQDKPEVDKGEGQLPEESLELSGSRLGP
How it was run: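 Cells seeded overnight to >95% confluence, loaded 40-60 min at room temperature with 2 μM Fluo-8 AM, then kept in HHBS. Baseline read 30 s, compound added, signal followed 150 s more.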

human FXR (NR1H4) = target: T1, human FXR (NR1H4) (Homo sapiens, UniProt Q96RI1); assay: Human FXR (NR1H4) agonist assessment, FXRE-NanoLuc reporter in HEK293T cells; format: cell-based
T1 sequence (Q96RI1 1-476 isoform Q96RI1-1): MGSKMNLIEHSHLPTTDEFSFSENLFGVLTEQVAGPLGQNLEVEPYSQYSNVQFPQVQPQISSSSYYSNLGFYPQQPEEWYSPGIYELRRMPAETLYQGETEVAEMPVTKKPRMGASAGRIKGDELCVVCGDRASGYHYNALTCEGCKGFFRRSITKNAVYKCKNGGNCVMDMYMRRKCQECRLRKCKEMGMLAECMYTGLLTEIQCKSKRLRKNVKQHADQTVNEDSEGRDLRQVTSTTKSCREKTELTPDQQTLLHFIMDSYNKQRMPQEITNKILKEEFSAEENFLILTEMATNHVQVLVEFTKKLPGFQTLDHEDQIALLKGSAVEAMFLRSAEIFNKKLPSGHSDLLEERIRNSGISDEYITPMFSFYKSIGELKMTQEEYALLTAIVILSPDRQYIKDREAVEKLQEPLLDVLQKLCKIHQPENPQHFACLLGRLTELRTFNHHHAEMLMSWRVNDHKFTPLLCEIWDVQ
How it was run: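 HEK293T cells stably expressing human FXR with an FXRE-NanoLuc reporter were treated with compounds for 24 hr at 37 °C, with 0.01% DMSO as negative control. Medium was read for luminescence after 5 min with coelenterazine. EC50 was fitted by sigmoid to concentration-response data.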

[1] = MRGPRX4 activation, Ca2+ fluorescence, no activation in tested range reported as III, read-out: Activity (EC50 μM)
[2] = FXR activation, HEK293T FXRE-NanoLuc reporter, 24 hr, read-out: EC50
[3] = FXR activation, HEK293T FXRE-NanoLuc reporter, 24 hr

Row | Compound | MRGPRX4 activation, fluorescence change (dF/F0), Average (MRGPRX4; Conc. (Log[M]) −4) | MRGPRX4 activation, fluorescence change (dF/F0), Average (MRGPRX4; Conc. (Log[M]) −4.5) | MRGPRX4 activation, fluorescence change (dF/F0), Average (MRGPRX4; Conc. (Log[M]) −5) | MRGPRX4 activation, fluorescence change (dF/F0), Average (MRGPRX4; Conc. (Log[M]) −5.5) | MRGPRX4 activation, fluorescence change (dF/F0), Average (MRGPRX4; Conc. (Log[M]) −6) | MRGPRX4 activation, fluorescence change (dF/F0), Average (MRGPRX4; Conc. (Log[M]) −7) | MRGPRX4 activation, fluorescence change (dF/F0), Average (MRGPRX4; Conc. (Log[M]) −8) | MRGPRX4 activation, fluorescence change (dF/F0), Average (MRGPRX4; Conc. (Log[M]) −9) | EC50 (MRGPRX4; [1]) | Efficacy (maximum measured induction of NanoLuc, normalized to CDCA set as 100%) (human FXR (NR1H4)) | EC50 (human FXR (NR1H4); [2]) | Efficacy (maximum measured induction of NanoLuc, normalized to CDCA set as 100%) (human FXR (NR1H4); [3]) | also measured
1 | CC[C@H]1[C@@H](O)[C@@H]2[C@H](CC[C@]3(C)[C@@H]([C@H](C)CCC(=O)O)CC[C@@H]23)[C@@]2(C)CCCC[C@@H]12 [compound 10] | 0.019 | −0.031 | −0.037 | −0.032 | −0.064 | −0.043 | −0.045 | −0.048 | > 100 µM | C (key: A: efficacy >400%; B: 300%<efficacy <=400%; C: 100%<efficacy <=300%; D: efficacy <=100%) | 1 to 10 µM |  | 
2 | C[C@H](CCC(=O)O)[C@H]1CC[C@H]2[C@@H]3CC[C@@H]4CC(=O)CC[C@]4(C)[C@H]3CC[C@]12C [compound 16] | 0.416 | 0.322 | 0.130 | −0.020 | −0.010 | 0.013 | 0.012 | −0.005 |  |  |  | C (100%<efficacy <=300%) | EC50 (MRGPRX4): < 50 µM; EC50 (human FXR (NR1H4)): > 10 µM
3 | C[C@H](CCC(=O)O)[C@H]1CC[C@H]2[C@@H]3CC[C@@H]4CCCC[C@]4(C)[C@H]3CC[C@]12C [compound 17] | 0.036 and 0.042 |  |  |  |  |  |  |  | < 50 µM | B (key: A: efficacy >400%; B: 300%<efficacy <=400%; C: 100%<efficacy <=300%; D: efficacy <=100%) | 1 to 10 µM |  | 
4 | CC(=O)CC[C@@H](C)[C@H]1CC[C@H]2[C@@H]3CC[C@@H]4CCCC[C@]4(C)[C@H]3CC[C@]12C [compound 21] |  |  |  |  |  |  |  |  | > 100 µM |  | 1 to 10 µM | C (100%<efficacy <=300%) | 
5 | CC[C@H]1[C@@H](O)[C@@H]2[C@H](CC[C@]3(C)[C@@H]([C@H](C)CC(=O)O)CC[C@@H]23)[C@@]2(C)CCCC[C@@H]12 [compound 26] | −0.070 | −0.059 | −0.090 | −0.062 | −0.067 | −0.072 | −0.090 | −0.084 | > 100 µM |  | > 10 µM | C (100%<efficacy <=300%) | 
6 | CCOC(=O)C(=O)NCC[C@@H](C)[C@H]1CC[C@H]2[C@@H]3[C@H](O)[C@H](CC)[C@@H]4CCCC[C@]4(C)[C@H]3CC[C@]12C [compound 53] |  |  |  |  |  |  |  |  | > 100 µM |  | < 1 µM | C (100%<efficacy <=300%) | MRGPRX4 activation, Average (MRGPRX4; E3-9, Conc. (Log[M]) −4.0): 0.030; MRGPRX4 activation, Average (MRGPRX4; E3-9, Conc. (Log[M]) −4.5): 0.016; MRGPRX4 activation, Average (MRGPRX4; E3-9, Conc. (Log[M]) −5.0): 0.013; MRGPRX4 activation, Average (MRGPRX4; E3-9, Conc. (Log[M]) −5.4): 0.020; MRGPRX4 activation, Average (MRGPRX4; E3-9, Conc. (Log[M]) −5.9): 0.011; MRGPRX4 activation, Average (MRGPRX4; E3-9, Conc. (Log[M]) −6.4): 0.013; MRGPRX4 activation, Average (MRGPRX4; E3-9, Conc. (Log[M]) −6.9): 0.013; MRGPRX4 activation, Average (MRGPRX4; E3-9, Conc. (Log[M]) −7.3): 0.013; MRGPRX4 activation, Average (MRGPRX4; E3-9, Conc. (Log[M]) −7.8): 0.008; MRGPRX4 activation, Average (MRGPRX4; E3-9, Conc. (Log[M]) −8.3): 0.011
7 | CC[C@H]1[C@@H](O)[C@@H]2[C@H](CC[C@]3(C)[C@@H]([C@H](C)CCC(=O)O)CC[C@@H]23)[C@@]2(C)CCC(F)(F)C[C@@H]12 [compound 55] |  |  |  |  |  |  |  |  | > 100 µM |  | < 1 µM | C (100%<efficacy <=300%) | MRGPRX4 activation, Average (MRGPRX4; E3-9, Conc. (Log[M]) −4.0): 0.006; MRGPRX4 activation, Average (MRGPRX4; E3-9, Conc. (Log[M]) −4.5): 0.004; MRGPRX4 activation, Average (MRGPRX4; E3-9, Conc. (Log[M]) −5.0): 0.018; MRGPRX4 activation, Average (MRGPRX4; E3-9, Conc. (Log[M]) −5.4): 0.023; MRGPRX4 activation, Average (MRGPRX4; E3-9, Conc. (Log[M]) −5.9): 0.019; MRGPRX4 activation, Average (MRGPRX4; E3-9, Conc. (Log[M]) −6.4): 0.019; MRGPRX4 activation, Average (MRGPRX4; E3-9, Conc. (Log[M]) −6.9): 0.016; MRGPRX4 activation, Average (MRGPRX4; E3-9, Conc. (Log[M]) −7.3): 0.019; MRGPRX4 activation, Average (MRGPRX4; E3-9, Conc. (Log[M]) −7.8): 0.016; MRGPRX4 activation, Average (MRGPRX4; E3-9, Conc. (Log[M]) −8.3): 0.018
8 | CC[C@H]1[C@@H](O)[C@@H]2[C@H](CC[C@]3(C)[C@@H]([C@H](C)CO)CC[C@@H]23)[C@@]2(C)CCCC[C@@H]12 [compound 73] | 0.098 | 0.042 | −0.031 | −0.031 | −0.020 | −0.023 | −0.023 | −0.014 | > 100 µM |  | 1 to 10 µM | A (efficacy >400%) | 
9 | C[C@H](CCCO)[C@H]1CC[C@H]2[C@@H]3CC[C@@H]4CCCC[C@]4(C)[C@H]3CC[C@]12C [compound 77] | 0.067 | 0.014 | −0.029 | −0.023 | −0.017 | −0.009 | −0.014 | −0.012 | > 100 µM | B (key: A: efficacy >400%; B: 300%<efficacy <=400%; C: 100%<efficacy <=300%; D: efficacy <=100%) | 1 to 10 µM |  | 
10 | C[C@H](CCCCC(=O)O)[C@H]1CC[C@H]2[C@@H]3CC[C@@H]4C[C@H](O)CC[C@]4(C)[C@H]3CC[C@]12C [compound 84] | 0.287 | 0.065 | 0.021 | −0.001 | 0.009 | −0.014 | 0.002 | −0.014 | < 50 µM |  | 1 to 10 µM | B (300%<efficacy <=400%) | 
